# Patent US20260021092A1, “STRUCTURE-BASED DESIGN OF A NOVEL CLASS OF DRUGS FOR NEURODEGENERATIVE DISEASE” (The Regents of the University of California, priority 2022, published 2026)
# Experiments:
# tau fibrils = tau fibrils (Homo sapiens, UniProt P10636); experiment: Table A function: disaggregators of amyloid fibrils (tau)
# α-synuclein fibrils = α-synuclein fibrils (Homo sapiens, UniProt P37840); experiment: Table A function: disaggregators of amyloid fibrils (alpha-synuclein)
# biosensor cells = experiment: Toxicity to biosensor cells under seeding assay conditions; type: cell-based; conditions: under the assayed conditions
# Sequence of tau fibrils (P10636 1-441 isoform P10636-8): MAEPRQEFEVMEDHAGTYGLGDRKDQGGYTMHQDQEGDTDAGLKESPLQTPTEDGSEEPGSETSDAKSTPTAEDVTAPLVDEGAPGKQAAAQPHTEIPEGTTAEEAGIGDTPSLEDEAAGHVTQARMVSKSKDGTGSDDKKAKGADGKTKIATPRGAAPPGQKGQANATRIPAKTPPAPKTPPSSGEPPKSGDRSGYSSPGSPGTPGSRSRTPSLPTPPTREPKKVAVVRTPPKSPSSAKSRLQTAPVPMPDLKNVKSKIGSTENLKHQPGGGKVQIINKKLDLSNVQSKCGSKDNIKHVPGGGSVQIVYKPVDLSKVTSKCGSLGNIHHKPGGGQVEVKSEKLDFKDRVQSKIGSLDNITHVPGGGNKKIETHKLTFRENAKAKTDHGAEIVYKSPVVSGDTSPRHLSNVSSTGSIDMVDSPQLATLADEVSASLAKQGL
Compound,Function (tau fibrils),also measured
"COc1cccc2cc(C(=O)Nc3cccc(-c4cn5ccccc5n4)c3)c(=O)oc12 [compound 1541, N-(3-(imidazo[1,2-a]pyridin-2-yl)phenyl)-8-methoxy-2-oxo-2H-chromene-3-carboxamide]",Dissociate tau fibrils,–
"O=C1C(Cl)=C(Nc2ccc(Cl)cc2)C(=O)c2ccccc21 [MOL18, 2-chloro-3-[(4-chlorophenyl)amino]naphthalene-1,4-dione]",Dissociate tau fibrils,–
"Cc1cc(NC(=O)Cc2ccccc2Cl)ccc1Br [MOL06, N-(4-bromo-3-methylphenyl)-2-(2-chlorophenyl)acetamide]",–,Function (α-synuclein fibrils): Dissociate α- synuclein fibrils
"Oc1cccc(-c2c3nc(c(-c4cccc(O)c4)c4ccc([nH]4)c(-c4cccc(O)c4)c4nc(c(-c5cccc(O)c5)c5ccc2[nH]5)CC4)C=C3)c1 [FDA-A4, Temoporfin]",–,toxicity to biosensor cells (biosensor cells): toxic
